Source: patent publication US12076342B2, “Method for generating progenitor t cells from stem and/or progenitor cells and use of same” (THE GOVERNING COUNCIL OF THE UNIVERSITY OF TORONTO, priority 2016, dated 2024)

Legend:
[1] = test system: CD34+ HSPCs derived from cord blood; test: Fed-batch bioreactor expansion culture of human CD34+ HSPCs; assay type: cell-based; conditions: 500 nM, 12 days of expansion, compared to control FB cultures
Method: Umbilical cord blood samples were collected from consenting donors according to ethically approved procedures at Mt. Sinai Hospital (Toronto, ON, Canada). Cells were red blood cell (RBC) depleted as previously described^10, using HetaSep (StemCell Technologies). CD34+ progenitor cells were selected with the EasySep system using a human CD34+ enrichment kit (StemCell Technologies), according to the manufacturer's protocol. Freshly isolated CD34+ cells were seeded at a density of 1×10^5 total cells/mL. Cells were seeded in StemSpan-ACF medium (StemCell Technologies), supplemented with 100 ng/mL Stem Cell Factor (SCF, R&D Systems or CellGenix), 100 ng/mL FMS-like Trysine Kinase 3 Ligand (Flt3L, R&D Systems or CellGenix), 50 ng/mL Thrombopoietin (TPO, R&D Systems or CellGenix), 2 mM GlutaMAX (GIBCO) and/or 500 nM UM729 small molecule. Cells were cultured for 12 days with minimal manual manipulation during the culture period, as previously described^11.
Cells were harvested from either fed-batch or fed-batch+UM729 at day 12 and sorted for CD34+ and CD34− populations. Sorted CD34+ and CD34− cells from both culture methods were seeded along with thawed unexpanded day 0 CD34+ HSPCs at 4000 cells/96-well coated overnight with 20 μg/mL DL4 and 2.3 μg/mL VCAM-1 in serum-free IMDM+BIT medium containing 100 ng/mL SCF, Tpo, Flt3L and IL-7. […]

[2] = test system: human umbilical cord blood-derived CD34+ HSPCs; test: Human CD34+ HSPC progenitor T cell differentiation on coated plates; assay type: cell-based; conditions: serum-free IMDM+BIT, 9 or 14 days; matrix proteins in conjunction with DL4
Method: For human HSPC culture, umbilical cord blood samples were collected from consenting donors according to ethically approved procedures at Mount Sinai Hospital. CD34+ cells were isolated from the red blood cell (RBC)-lysed cord blood fraction using the EasySep™ Human CD34 Positive Selection Kit (Stemcell Technologies) according to the manufacturer's instructions. Flow cytometry was performed after every enrichment to ensure CD34 frequencies were greater than 95%. CD34+ HSPCs were cultured for 14 days on DL4 and VCAM-1 coated 96-well plates at higher seeding densities of 12,500 HSPCs/cm^2 (corresponding to 4000 cells/well). One complete medium exchange was performed at day 7 of culture and cells were returned to the same DL4 and VCAM-1 coated plates. For certain experiments, DL4-Fc was coated alone or with RetroNectin® (Takara Shuzo) or fibronectin (Sigma Aldrich) as described in the text. CD34+ cells were cultured in serum-free Iscove modified Dulbecco medium (Gibco) with 20% bovine serum albumin, insulin, and transferrin serum substitute (BIT; Stemcell Technologies), 1% GlutaMAX™ (Gibco) and 1 μg/mL low-density lipoproteins (Calbiochem). The medium was added at 50 μL/well supplemented with 100 ng/mL SCF (R&D Systems, Minneapolis, MN), 100 ng/mL Flt3L (R&D Systems), 100 ng/mL Tpo (R&D Systems) and 100 ng/mL IL-7 (R&D Systems).
Surface marker staining was performed with conjugated rat anti-mouse antibodies (BD Biosciences, San Jose, CA, Table 1). All samples were analyzed on a FACSCanto™ or FACS LSRFortessa™ flow cytometer (BD Biosciences). At day 7 of culture, cells were lifted off the plate with multiple HF rinses, stained at 1:400 dilution with antibodies against CD45, CD25, CD44, CD90, CD11 b and CD19 for 20 minutes on ice. […] Integrin expression was analyzed using antibodies against α4, β1, and β7 integrin subunits on Sca-1+cKit+ mouse HSPCs and CD34+ human umbilical blood cells. […] Flow data was analyzed and batch processed using FlowJo® software and further analyzed in Python (version 2.7.10).

[3] = test system: sorted sca1+ckit+ fetal-liver HSPCs; test: Defined T cell differentiation assay on adsorbed ligand, flow cytometry; assay type: cell-based, mouse
Method: FIG. 2a: Schematic for 2D coated DL4 assay, in which sorted E13.5 sca1+ckit+ fetal-liver HSPCs are seeded on coated DL4 ligand in standard 96-well flat bottom plates at 1000 cells/well density in 200 μl test media containing cytokines 25 ng/mL SCF, 5 ng/mL Flt3L and 1 ng/mL IL7; cells are re-fed on day 4 with fresh media containing cytokines; on day 7, cells are assayed for surface marker expression using flow cytometry.
Commercially available DL4-Fc was purchased and used for experiments from Sino Biologicals (Cedarlane Labs, Burlington, Ontario, Canada) or manufactured in-house as described below. DL4-Fc was diluted in chilled phosphate-buffered saline (PBS) at 10 μg/mL or […] and 50 μL/well was coated in standard tissue-culture 96-well plates overnight at 4° C. Wells were washed once with PBS prior to seeding cells to remove any unbound ligand from the wells. For certain experiments, wells were also coated overnight with 50 μL/well PBS containing DL4-Fc and VCAM-1-Fc (R&D) or fibronectin (Sigma) at concentrations described herein.
Sorted sca1+ckit+ HSPCs were cultured at 1000 cells/well (corresponding to 3.1×10^3 cells/cm^2) in DL4-coated 96-well plates in serum-free Iscove modified Dulbecco medium (Gibco, Rockville, MD) with 20% bovine serum albumin, insulin, and transferrin serum substitute (BIT; Stemcell Technologies), 1% GlutaMAX™ (Gibco) and 1 μg/mL low-density lipoproteins (Calbiochem, La Jolla, CA) [IMDM+BIT]. For positive control cultures, OP9 serum medium was used, composed of αMEM medium (Gibco) and 16% FBS (Hyclone™, GE Health). Serum-free αMEM+BIT medium was prepared exactly as IMDM+BIT medium except using αMEM (Gibco) as the base medium. OP9 serum medium, αMEM+BIT or IMDM+BIT serum free medium was added at 200 μL/well supplemented with 25 ng/mL Stem Cell Factor (SCF; R&D Systems, Minneapolis, MN), 5 ng/mL FMS-like Tyrosine Kinase 3 Ligand (Flt3L; R&D Systems) and 1 ng/mL Interleukin-7 (IL-7; R&D Systems) with a 50% medium exchange step at day 4 containing 2-fold concentrated cytokines as described previously^9. Design of Experiment (DOE) in silico modeling was performed using Design-Expert® (v10) using response surface method to investigate the combinatorial desirability of different concentrations of SCF, Flt3L and IL-7 for maximizing DN3 T-cell yield and minimizing the volume of IMDM+BIT medium. After DOE optimization, IMDM+BIT serum-free medium was added at 50 μL/well supplemented with 50 ng/mL SCF (R&D Systems), 10 ng/mL Flt3L (R&D Systems) and 10 ng/mL IL-7 (R&D Systems) unless described otherwise in the text with no medium exchange for the length of the assay. For the candidate factor screening in serum-free IMDM+BIT medium, the following proteins or small molecules were used at the concentrations listed: JAK inhibitor I (50 nM; EMD Millipore), IL-11 (10, 50, and 100 ng/mL; R&D Systems), IL-6 (10, 50, and 100 ng/mL; R&D Systems), IL-6R (100 ng/mL; R&D Systems), Ccl25 (1.5 μg/mL; R&D Systems), IL-7 (50, 100, and 200 ng/mL; R&D Systems), SDF1α (Cxcl12; 200 ng/mL; R&D Systems), and Leukemia Inhibitory Factor (LIF; 0.1, 1, and 10 ng/mL; EMD Millipore).
Surface marker staining was performed with conjugated rat anti-mouse antibodies (BD Biosciences, San Jose, CA, Table 1). All samples were analyzed on a FACSCanto™ or FACS LSRFortessa™ flow cytometer (BD Biosciences). At day 7 of culture, cells were lifted off the plate with multiple HF rinses, stained at 1:400 dilution with antibodies against CD45, CD25, CD44, CD90, CD11 b and CD19 for 20 minutes on ice. Human progenitor T-cells were stained at 1:100 dilution with antibodies against CD34, CD7, CD5 and CD45RA. Integrin expression was analyzed using antibodies against α4, β1, and β7 integrin subunits on Sca-1+cKit+ mouse HSPCs and CD34+ human umbilical blood cells. […]

[4] = test system: Notch pathway (CBF1-Firefly); test: NIH3T3 luciferase assay for measuring Notch activation; assay type: cell-based
Method: NIH3T3 cells were seeded at 125,000 cells/well in a 6-well plate on the previous day and transiently transfected overnight with Notch1, CBF1-Firefly and constitutively active Renilla plasmids using FuGENE® HD transfection reagent (Promega Corporation, Madison WI USA) as per the manufacturer's instructions. Transfected NIH3T3 cells were either seeded on DL4-coated plates or in DL4-conjugated MC for 24 hours prior to measuring Firefly activation normalized to Renilla expression using the dual-luciferase reporter assay system (Promega Corporation, Madison WI USA) according to the manufacturer's instructions.

COC(=O)c1ccc2c(c1)[nH]c1ncnc(NCCCN3CCCCC3)c12 [UM-729]
CD34− yield [1]: minimized CD34− yield | overall CD34+ yield [1]: enhanced overall CD34+ yield

fibronectin [reference compound]
generation of later stage progenitor T cells from CD34+ HSPCs [2]: incapable of differentiating CD7+CD34+ progenitors further along the T cell lineage

soluble DL4: DL4 ligand supplied in soluble rather than adsorbed form
DN3 cell generation in soluble ligand ([3]; 10 μg/mL soluble DL4, day 7): no DN3 cells were generated | effect of soluble ligand on induction by adsorbed DL4 ([3]; mixture of adsorbed and soluble DL4, day 7): completely inhibited the inductive effects of adsorbed DL4 ligand | Notch1 intracellular domain translocation (CBF1-luciferase) ([4]; soluble DL4 added, cells on immobilized DL4): actively inhibits translocation of the intracellular domain of Notch1 receptor

B1: IL-7: Interleukin-7 cytokine (R&D Systems) (protein, UniProt P13232 26-177, looked up)
Interleukin-7: DCDIEGKDGKQYESVLMVSIDQLLDSMKEIGSNCLNNEFNFFKRHICDANKEGMFLFRAARKLRQFLKMNSTGDFDLHLLKVSEGTTILLNCTGQVKGRKPAALGEAQPTKSLEENKSLKEQKKLNDLCFLKRLLQEIKTCWNKILMGTKEH
DN3 yield with raised IL-7 concentration ([3]; IL-7 from 2 to 10 ng/mL, 50-10-10 no-feed condition vs 25-5-1 re-feed control): significantly higher yields of T lineage-committed DN3 cells than the control

B2: DL1: Delta-like-1 (DL1), alternate Notch-1 ligand (protein, UniProt O00548 18-723, looked up)
Delta-like protein 1: QVWSSGVFELKLQEFVNKKGLLGNRNCCRGGAGPPPCACRTFFRVCLKHYQASVSPEPPCTYGSAVTPVLGVDSFSLPDGGGADSAFSNPIRFPFGFTWPGTFSLIIEALHTDSPDDLATENPERLISRLATQRHLTVGEEWSQDLHSSGRTDLKYSYRFVCDEHYYGEGCSVFCRPRDDAFGHFTCGERGEKVCNPGWKGPYCTEPICLPGCDEQHGFCDKPGECKCRVGWQGRYCDECIRYPGCLHGTCQQPWQCNCQEGWGGLFCNQDLNYCTHHKPCKNGATCTNTGQGSYTCSCRPGYTGATCELGIDECDPSPCKNGGSCTDLENSYSCTCPPGFYGKICELSAMTCADGPCFNGGRCSDSPDGGYSCRCPVGYSGFNCEKKIDYCSSSPCSNGAKCVDLGDAYLCRCQAGFSGRHCDDNVDDCASSPCANGGTCRDGVNDFSCTCPPGYTGRNCSAPVSRCEHAPCHNGATCHERGHRYVCECARGYGGPNCQFLLPELPPGPAVVDLTEKLEGQGGPFPWVAVCAGVILVLMLLLGCAAVVVCVRLRLQKHRPPADPCRGETETMNNLANCQREKDISVSIIGATQIKNTNKKADFHGDHSADKNGFKARYPAVDYNLVQDLKGDDTAVRDAHSKRDTKCQPQGSSGEEKGTPTTLRGGEASERKRPDSGCSTSKDTKYQSVYVISEEKDECVIATEV
generation of DN2/DN3 progenitor T cells on adsorbed ligand ([3]; same range of coating concentrations as DL4, day 7): incapable of generating DN2 or DN3 progenitor T cells | Notch pathway activation (CBF-1 Firefly normalized to Renilla) ([4]; 24 hours, DL1-Fc at 10 and 20 μg/mL): unable to sustain progenitor T cell production or activate the Notch pathway at similar coating concentrations as DL4 ligand
